Test results as given in US10633419B2, “Immunomodulators” (BRISTOL-MYERS SQUIBB COMPANY, priority 2014, dated 2020).
pIC50: −log10 of the molar value. Positions of bridges follow the written chain, without caps; N, C: chain ends. Non-standard residues stand in square brackets, D forms with d. Residues, ends and D or L forms follow the SMILES beside them. ξ: configuration not given here. *: point of attachment. Trp(1-CH2COOH) = N[C@@H](Cc1cn(CC(=O)O)c2ccccc12)C(=O)O; d(cisHyp) = O=C(O)[C@H]1C[C@@H](O)CN1; PEG6 = NCCOCCOCCOCCOCCOCCOCCC(=O)O; Palmitoyl = CCCCCCCCCCCCCCCC(=O)*; Hyp = O=C(O)[C@@H]1C[C@@H](O)CN1; NMeNle = CCCC[C@H](NC)C(=O)O; NMeA = CN[C@@H](C)C(=O)O; Dab = NCC[C@H](N)C(=O)O; Dap = NC[C@H](N)C(=O)O; ξC = NC(CS)C(=O)O

target: T1, PD-L1 (Homo sapiens, UniProt Q9NZQ7); assay: PD-1/PD-L1 Homogenous Time-Resolved Fluorescence (HTRF) binding assay (PD-1-Ig/PD-L1-His); settings: inhibition of PD-1-Ig binding to PD-L1-TVMV-His; value given as range class; read-out: HTRF IC50
T1 construct: hPDL1(19-239)-TVMV-His; made in house; host or cells: HEK293T
Outline: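 Inhibitors pre-incubated 15 min with PD-L1-His (10 nM final), then PD-1-Ig (20 nM final) added for 15 min in dPBS/0.1% BSA/0.05% Tween-20. Eu-cryptate anti-Ig (1 nM) and APC anti-His (20 nM) added, 30 min equilibration, 665/620 nm HTRF ratio read.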

T1 sequence (Q9NZQ7 with tags, fused parts or gaps): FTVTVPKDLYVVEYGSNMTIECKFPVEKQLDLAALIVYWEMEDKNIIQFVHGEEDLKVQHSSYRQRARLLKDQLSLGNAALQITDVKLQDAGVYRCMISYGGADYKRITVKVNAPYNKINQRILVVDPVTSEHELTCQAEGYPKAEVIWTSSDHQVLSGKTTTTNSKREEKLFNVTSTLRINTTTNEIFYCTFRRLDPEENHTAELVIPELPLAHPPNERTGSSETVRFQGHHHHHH

| Compound | pIC50 |
| --- | --- |
| CCCCCCCCCCCCCCCC(=O)NCCCC[C@H](NC(=O)CCOCCOCCOCCOCCOCCOCCNC(=O)CNC(=O)C1CSCC(=O)N[C@@H](Cc2ccc(O)cc2)C(=O)N(C)[C@@H](C)C(=O)N[C@@H](CC(=O)O)C(=O)N2CCC[C@H]2C(=O)N[C@@H](Cc2cnc[nH]2)C(=O)N[C@@H](CC(C)C)C(=O)N2C[C@H](O)C[C@H]2C(=O)N[C@@H](Cc2c[nH]c3ccccc23)C(=O)N[C@@H](CO)C(=O)N[C@@H](Cc2c[nH]c3ccccc23)C(=O)N(C)[C@@H](CCCC)C(=O)N(C)[C@@H](CCCC)C(=O)N[C@@H](CCCNC(=N)N)C(=O)N1)C(N)=O (some centres unmarked) [Example 11029] ({CH2CO}-Y[NMeA]DPHL[Hyp]WSW[NMeNle][NMeNle]R[ξC]G[PEG6]K(Palmitoyl)-NH2; thioether N-14) | 5.80 to 7.00 |
| CCCC[C@H]1C(=O)N(C)[C@@H](CCCC)C(=O)N[C@@H](CC(C)C)C(=O)N[C@H](C(=O)NCCOCCOCCOCCOCCOCCOCCC(=O)O)CSCC(=O)N[C@@H](Cc2ccc(O)cc2)C(=O)N(C)[C@@H](C)C(=O)N[C@@H](CC(N)=O)C(=O)N2CCC[C@H]2C(=O)N[C@@H](Cc2cnc[nH]2)C(=O)N[C@@H](CCC(=O)O)C(=O)N2C[C@H](O)C[C@@H]2C(=O)N[C@@H](Cc2c[nH]c3ccccc23)C(=O)N[C@@H](CCN)C(=O)N[C@@H](Cc2cn(CC(=O)O)c3ccccc23)C(=O)N1C [Example 11044] ({CH2CO}-Y[NMeA]NPHE[d(cisHyp)]W[Dab][Trp(1-CH2COOH)][NMeNle][NMeNle]LC[PEG6]-OH; thioether N-14) | 7.00 to 8.00 |

Continued, values first:

| pIC50 | Compound |
| --- | --- |
| 5.80 to 7.00 | CCCCCCCCCCCCCCCC(=O)NCCCC[C@H](NC(=O)[C@H](CC(=O)O)NC(=O)CNC(=O)[C@@H]1CSCC(=O)N[C@@H](Cc2ccc(O)cc2)C(=O)N(C)[C@@H](C)C(=O)N[C@@H](CC(N)=O)C(=O)N2CCC[C@H]2C(=O)N[C@@H](CCN)C(=O)N[C@@H](CC(C)C)C(=O)N2C[C@H](O)C[C@H]2C(=O)N[C@@H](Cc2c[nH]c3ccccc23)C(=O)N[C@@H](CO)C(=O)N[C@@H](Cc2c[nH]c3ccccc23)C(=O)N(C)[C@@H](CCCC)C(=O)N(C)[C@@H](CCCC)C(=O)N[C@@H](CCCNC(=N)N)C(=O)N1)C(N)=O [Example 11027] ({CH2CO}-Y[NMeA]NP[Dab]L[Hyp]WSW[NMeNle][NMeNle]RCGDK(Palmitoyl)-NH2; thioether N-14) |
| 7.00 to 8.00 | CCCC[C@H]1C(=O)N(C)[C@@H](CCCC)C(=O)N[C@@H](CC(C)C)C(=O)N[C@H](C(=O)NCCOCCOCCOCCOCCOCCOCCC(=O)O)CSCC(=O)N[C@@H](Cc2ccc(O)cc2)C(=O)N(C)[C@@H](C)C(=O)N[C@@H](CC(N)=O)C(=O)N2CCC[C@H]2C(=O)N[C@@H](CO)C(=O)N[C@@H](CCC(N)=O)C(=O)N2C[C@H](O)C[C@@H]2C(=O)N[C@@H](Cc2c[nH]c3ccccc23)C(=O)N[C@@H](CO)C(=O)N[C@@H](Cc2cn(CC(=O)O)c3ccccc23)C(=O)N1C [Example 11045] ({CH2CO}-Y[NMeA]NPSQ[d(cisHyp)]WS[Trp(1-CH2COOH)][NMeNle][NMeNle]LC[PEG6]-OH; thioether N-14) |
| 7.00 to 8.00 | CCCC[C@H]1C(=O)N(C)[C@@H](CCCC)C(=O)N[C@@H](CC(C)C)C(=O)N[C@H](C(=O)NCCOCCOCCOCCOCCOCCOCCC(=O)O)CSCC(=O)N[C@@H](Cc2ccc(O)cc2)C(=O)N(C)[C@@H](C)C(=O)N[C@@H](CC(N)=O)C(=O)N2CCC[C@H]2C(=O)N[C@@H](CO)C(=O)N[C@@H](CCC(N)=O)C(=O)N2C[C@H](O)C[C@@H]2C(=O)N[C@@H](Cc2c[nH]c3ccccc23)C(=O)N[C@@H](CN)C(=O)N[C@@H](Cc2cn(CC(=O)O)c3ccccc23)C(=O)N1C [Example 11046] ({CH2CO}-Y[NMeA]NPSQ[d(cisHyp)]W[Dap][Trp(1-CH2COOH)][NMeNle][NMeNle]LC[PEG6]-OH; thioether N-14) |
